Data published in the NIST ThermoML archive (doi:10.1021/acs.jced.7b00039).

Legend:
[1] = 100 kPa, Liquid; for viscosity: Cone and plate viscometry; for mass density: Vibrating tube method
[2] = wn = mass fraction of the nth substance listed; conditions: 100 kPa, Liquid; for viscosity: Cone and plate viscometry; for mass density: Vibrating tube method

CC(CC(C)(C)C)CP(=O)([O-])CC(C)CC(C)(C)C.CCCCCCCCCCCCCC[P+](CCCCCC)(CCCCCC)CCCCCC
[1]
Conditions | mass density [kg/m3] | viscosity [mPa·s]
298 K | 883.68 | 1023
310 K | 876.52 | 521
318 K | 871.79 | 345

O [water] + CC(CC(C)(C)C)CP(=O)([O-])CC(C)CC(C)(C)C.CCCCCCCCCCCCCC[P+](CCCCCC)(CCCCCC)CCCCCC
[2], w1 = 1
Conditions | mass density [kg/m3] | viscosity [mPa·s]
298 K | – | 0.89
310 K | 993.35 | 0.686
318 K | – | 0.581

CC(CC(C)(C)C)CP(=O)([O-])CC(C)CC(C)(C)C.CCCCCCCCCCCCCC[P+](CCCCCC)(CCCCCC)CCCCCC + O
[2]
Conditions | mass density, 298 K [kg/m3] | mass density, 310 K [kg/m3] | mass density, 318 K [kg/m3] | viscosity, 298 K [mPa·s] | viscosity, 310 K [mPa·s] | viscosity, 318 K [mPa·s]
w2 = 0.00047 | 884.09 | 876.93 | 872.2 | 1023 | 521 | 345
w2 = 0.00122 | 884.98 | 877.82 | 873.07 | 996 | 512 | 337
w2 = 0.00289 | 886.11 | 878.88 | 874.07 | 924 | 476 | 313
w2 = 0.00582 | 886.78 | 879.48 | 874.64 | 796 | 401 | 263
w2 = 0.0147 | 887.75 | 880.36 | 875.46 | 646 | 321 | 210
w2 = 0.0317 | 890.65 | 883.04 | 878.08 | 431 | 211 | 137
w2 = 0.081 | 898.06 | 890.2 | 884.95 | 261 | 125 | 81.6
w2 = 0.142 | – | – | 893.78 | – | – | 55.6
w2 = 0.146 | – | 900.11 | – | – | 79.7 | –
w2 = 0.154 | – | – | – | 142 | – | –
w2 = 0.156 | 909.07 | – | – | 142 | – | –

O [water]
[1]
Conditions | mass density [kg/m3] | viscosity [mPa·s]
298 K | – | 0.89
310 K | 993.35 | 0.686
318 K | – | 0.581
